We go through 6 compounds from PMC6150270, “Solvent and Copper Ion-Induced Synthesis of Pyridyl–Pyrazole-3-One Derivatives: Crystal Structure, Cytotoxicity” (Molecules : A Journal of Synthetic Chemistry and Natural …, 2017).

The subject of one data set is T-24 tumor cell line. As to the kind of experiment: MTT cytotoxicity assay, T-24. The conditions noted are these: for IC50: 48 h, MTT, mean ± SD; for inhibition at 20 µM: read-out: Inhibition rate T-24. The data set is classed as cell-based, human. Here is the method: (§1) The cytotoxicities of compounds 1–5 against the human tumor cell lines BEL-7404, HepG2, NCI-H460, T-24 and A549, as well as human normal liver cell line HL-7702, were tested by the MTT assay. Cisplatin was also tested for comparison.
(§2) All the cells were maintained in DMEM (Dulbecco’s Modified Eagle Medium) supplemented with 10% fetal calf serum, 100 units/mL ampicillin and […] streptomycin sulfate at 37 °C in a humidified atmosphere under 5% CO2. Compounds 1–5 were dissolved in DMSO at a concentration of 2.0 mM stock solution. The stock was diluted by PBS to the required concentration immediately before use.
(§3) Cisplatin was prepared according to a literature procedure. The cells were all grown in 96-well, flat-bottomed microtiter plates. Compounds 1–5 and cisplatin were dissolved in the culture medium (containing 1% DMSO) to a concentration of 100 μg/mL. The resultant solutions were subsequently added to a set of wells. The wells for control contained the supplemented medium with 1% DMSO. The microtiter plates were incubated at 37 °C in a humidified atmosphere of 5% CO2/95% air for a further 48 h. At the end of each incubation period, the 3-(4,5-dimethylthiazol-2-yl)-2,5-diphenyltetrazolium bromide (MTT) solution (10 μL, 5 mg/mL) was added into each well and the cultures were further incubated for 6 h under the same conditions. After the removal of the supernatant, DMSO (100 μL) was added to dissolve the formazan crystals. The absorbance of the solution was read by an enzyme-labeled microplate reader with 490/630 nm double wavelength measurement. The cytotoxicity was evaluated based on the percentage of cell survival in a dose-dependent manner relative to the negative control. The final IC50 values were calculated by the Bliss method (n = 5). All tests were repeated in at least three independent trials.
Background: Tetrazolium dyes change colour on reduction, which living cells bring about.

A further data set concerns BEL-7404 tumor cell line. Description: MTT cytotoxicity assay, BEL-7404. Type of data set: cell-based, human. The conditions noted are these: for IC50: 48 h, MTT, mean ± SD; for inhibition at 20 µM: read-out: Inhibition rate BEL-7404. Here is the method:
as §1, §2, §3

Another data set concerns NCI-H460 tumor cell line. Description: MTT cytotoxicity assay, NCI-H460. Type of data set: cell-based, human. The conditions noted are these: for IC50: 48 h, MTT, mean ± SD; for inhibition at 20 µM: read-out: Inhibition rate NCI-H460. Here is the method: as §1, §2, §3
The test system of a further data set is HepG2 tumor cell line. Description: MTT cytotoxicity assay, HepG2. Type of data set: cell-based, human. The conditions noted are these: for IC50 / inhibition at 20 µM: Homo sapiens, HepG2; for IC50: 48 h, mean ± SD; for IC50 / Growth inhibition on HepG2 cell lines (in words): MTT; for inhibition at 20 µM: read-out: Inhibition rate HepG2; for Cytotoxicity toward HepG2 enhanced compared with normal liver cell HL-7702: ratio of IC50 HL-7702 to IC50 HepG2. The protocol: as §1, §2, §3

The test system of data set [1] is normal liver cell line HL-7702. As to the kind of experiment: MTT cytotoxicity assay, HL-7702. The conditions noted are these: normal liver cells; for IC50: 48 h, MTT, mean ± SD; for inhibition at 20 µM: read-out: Inhibition rate HL-7702. Type of data set: cell-based, human. The protocol: as §1, §2, §3
In the next data set the test system is A549 tumor cell line. Description: MTT cytotoxicity assay, A549. The data set is classed as cell-based. The conditions noted are these: Homo sapiens; for IC50: 48 h, MTT, mean ± SD; for inhibition at 20 µM: complexes 1-5 at 20 μM, incubation 48 h, read-out: Inhibition rate A549. The protocol:
as §1, §2, §3

Setting [2] is: complexes 1-5 at 20 μM, incubation 48 h.
[3] abbreviates: Homo sapiens, complexes 1-5 at 20 μM, incubation 48 h.
Where [4] appears, read: Homo sapiens, BEL-7404, complexes 1-5 at 20 μM, incubation 48 h.
[5] abbreviates: Homo sapiens, NCI-H460, complexes 1-5 at 20 μM, incubation 48 h.
[6] abbreviates: Homo sapiens, L02, complexes 1-5 at 20 μM, incubation 48 h.

SMILES strings stand for the structures.

Usually IC50 stands for the concentration that gives 50% inhibition. High values mean a need for much substance, low ones inhibition by little substance. Consider `N.N.[Cl][Pt][Cl]` [Cisplatin, reference compound], for which the IC50 was determined as 28.1 ± 1.88 µM in the data set with T-24 tumor cell line, 12.4 ± 0.38 µM with BEL-7404 tumor cell line, 18.9 ± 1.02 µM with NCI-H460 tumor cell line and 5.63 ± 0.32 µM in data set [1]. The “Inhibition rate T-24” value in the data set on T-24 tumor cell line (setting [2]) came to 47.58±2.65. In addition, in the data set with BEL-7404 tumor cell line (setting [2]), the “Inhibition rate BEL-7404” value came out at 55.15±1.18. In the data set with NCI-H460 tumor cell line (setting [2]), the “Inhibition rate NCI-H460” value was determined as 50.88±3.69. The “Inhibition rate HepG2” value with HepG2 tumor cell line (setting [2]) is on record as 60.63±0.99. In addition, the “Inhibition rate HL-7702” value in data set [1] (setting [2]) is given as 73.58±2.30.
One may read the inhibition as the relative decrease from the control value, in per cent. Consider `COC(=O)c1cc(OC(C)=O)n(-c2cccc(Br)n2)n1` [Compound 1, Methyl 5-(acetyloxy)-1-(6-bromo-2-pyridinyl)-1H-pyrazole-3-carboxylate], for which the IC50 with T-24 tumor cell line (Homo sapiens) worked out at 70.5 ± 1.33 µM; in the data set on A549 tumor cell line it was 37.6 ± 1.03 µM; with BEL-7404 tumor cell line (Homo sapiens, BEL-7404), 66.5 ± 1.13 µM; in the data set with NCI-H460 tumor cell line (Homo sapiens, NCI-H460) it was 109 ± 1.65 µM; in the data set with HepG2 tumor cell line, 37.1 ± 0.54 µM; in data set [1] (Homo sapiens, L02), 111 ± 2.84 µM. Moreover, the inhibition at 20 µM in the data set with T-24 tumor cell line (setting [3]) amounted to 37.6 ± 1.72%; in the data set with A549 tumor cell line it was 31.1 ± 1.39%; in the data set with BEL-7404 tumor cell line (setting [4]), 38.2 ± 1.99%; with NCI-H460 tumor cell line (setting [5]), 34 ± 1.76%; in the data set on HepG2 tumor cell line (setting [2]), 47.21 ± 0.44%; in data set [1] (setting [6]), 26.5 ± 0.42%. Further, the “Growth inhibition on HepG2 cell lines (in words)” value in the data set with HepG2 tumor cell line is reported as “weakly growth inhibition”. Also, in the data set on HepG2 tumor cell line, the “Cytotoxicity toward HepG2 enhanced compared with normal liver cell HL-7702” value came to 2.98 times.
Regarding `COC(=O)c1cc(O)n(-c2cccc(Br)n2)n1` [Compound 2, Methyl 1-(6-bromo-2-pyridinyl)-5-hydroxy-1H-pyrazole-3-carboxylate], the IC50 in the data set with T-24 tumor cell line (Homo sapiens) turned out to be 46.2 ± 0.87 µM; in the data set on A549 tumor cell line, 44.8 ± 1.12 µM; with BEL-7404 tumor cell line (Homo sapiens, BEL-7404), 125 ± 1.87 µM; in the data set with NCI-H460 tumor cell line (Homo sapiens, NCI-H460), 40.7 ± 0.54 µM; in the data set with HepG2 tumor cell line it was 29.8 ± 0.91 µM; in data set [1] (Homo sapiens, L02), 118 ± 3.34 µM. The inhibition at 20 µM is 42.5 ± 0.96% with T-24 tumor cell line (setting [3]); 22.4 ± 1.74% with A549 tumor cell line; 20.2 ± 1.18% in the data set on BEL-7404 tumor cell line (setting [4]); 38 ± 0.62% with NCI-H460 tumor cell line (setting [5]); 43 ± 0.74% with HepG2 tumor cell line (setting [2]); 24.7 ± 0.59% in data set [1] (setting [6]). In addition, the “Growth inhibition on HepG2 cell lines (in words)” value in the data set with HepG2 tumor cell line is given as “weakly growth inhibition”. In addition, in the data set with HepG2 tumor cell line, the “Cytotoxicity toward HepG2 enhanced compared with normal liver cell HL-7702” value is 3.98 times.
As for `COC(=O)C1=NN(c2cccc(Br)n2)C(=O)C1(c1c(C(=O)OC)nn(-c2cccc(Br)n2)c1O)c1c(C(=O)OC)nn(-c2cccc(Br)n2)c1O` [Compound 3, Trimethyl 1,1′,1′′-tris(6-bromo-2-pyridinyl)-5,5′′-dihydroxy-5′-oxo-1′,5′-dihydro-1H,1′′H-4,4′: 4′,4′′-terpyrazole-3,3′,3′′-tricarboxylate], the IC50 with T-24 tumor cell line (Homo sapiens) is 85.38 ± 0.67 µM; in the data set on A549 tumor cell line, 33.6 ± 1.07 µM; in the data set on BEL-7404 tumor cell line (Homo sapiens, BEL-7404), 112 ± 2.78 µM; with NCI-H460 tumor cell line (Homo sapiens, NCI-H460), 38 ± 0.89 µM; in the data set with HepG2 tumor cell line, 54.7 ± 0.81 µM; in data set [1] (Homo sapiens, L02), 151 ± 3.06 µM. Further, the inhibition at 20 µM in the data set with T-24 tumor cell line (setting [3]) came out at 32 ± 0.89%; with A549 tumor cell line it was 33.3 ± 2.51%; in the data set with BEL-7404 tumor cell line (setting [4]) it was 24.6 ± 0.75%; with NCI-H460 tumor cell line (setting [5]), 42.5 ± 2.27%; in the data set on HepG2 tumor cell line (setting [2]), 41 ± 1.27%; in data set [1] (setting [6]) it was 22.2 ± 1.05%. The “Cytotoxicity toward HepG2 enhanced compared with normal liver cell HL-7702” value in the data set with HepG2 tumor cell line is given as 2.76 times.
In the case of `COC(=O)C1=NN(c2cccc(Br)n2)C2(C(C(=O)OC)=NN(c3cccc(Br)n3)C2O)C1(C(=O)OC)c1c(C(=O)OC)nn(-c2cccc(Br)n2)c1O` (stereo not shown) [Compound 4, Trimethyl-1,8-bis(6-bromopyridin-2-yl)-4-(1-(6-bromopyridin-2-yl)-5-hydroxy-3-(methoxycarbonyl)-1H-pyrazol-4-yl)-9-hydroxy-1,2,7,8-tetraazaspiro[4.4]nona-2,6-diene-3,4,6-tricarboxylate], the IC50 in the data set on T-24 tumor cell line (Homo sapiens) came to 42.9 ± 1.41 µM; in the data set on A549 tumor cell line it was 28.1 ± 1.01 µM; in the data set with BEL-7404 tumor cell line (Homo sapiens, BEL-7404) it was 41.81 ± 0.37 µM; in the data set on NCI-H460 tumor cell line (Homo sapiens, NCI-H460), 66.48 ± 0.57 µM; with HepG2 tumor cell line, 10.7 ± 0.38 µM; in data set [1] (Homo sapiens, L02), 96.14 ± 0.49 µM. The inhibition at 20 µM came out at 43.2 ± 1.15% in the data set with T-24 tumor cell line (setting [3]); 40.2 ± 0.44% with A549 tumor cell line; 39.6 ± 1.43% in the data set with BEL-7404 tumor cell line (setting [4]); 33.6 ± 1.38% in the data set with NCI-H460 tumor cell line (setting [5]); 53.3 ± 0.92% in the data set with HepG2 tumor cell line (setting [2]); 35.1 ± 1.34% in data set [1] (setting [6]). In addition, the “Increase in HepG2 cytotoxicity compared to the free ligand 5” value in the data set on HepG2 tumor cell line (IC50 of 5 relative to IC50 of 4, HepG2) was “approximately 16.44 fold”. Moreover, the “Cytotoxicity toward HepG2 enhanced compared with normal liver cell HL-7702” value in the data set with HepG2 tumor cell line worked out at 9.02 times.
For the compound `COC(=O)C1=NN(c2cccc(Br)n2)C2(C(C(=O)O)=NN(c3cccc(Br)n3)C2O)C1(C(=O)OC)c1c(C(=O)OC)nn(-c2cccc(Br)n2)c1O` (stereo not shown) [Compound 5, 1,8-Bis(6-bromopyridin-2-yl)-4-(1-(6-bromopyridin-2-yl)-5-hydroxy-3-(methoxycarbonyl)-1H-pyrazol-4-yl)-9-hydroxy-3,4-bis(methoxycarbonyl)-1,2,7,8-tetraazaspiro[4.4]nona-2,6-diene-6-carboxylic acid], the IC50 in the data set with T-24 tumor cell line (Homo sapiens) came to 76 ± 1.16 µM; in the data set on A549 tumor cell line, 77.56 ± 0.72 µM; in the data set on BEL-7404 tumor cell line (Homo sapiens, BEL-7404), 84.3 ± 1.01 µM; in the data set with NCI-H460 tumor cell line (Homo sapiens, NCI-H460) it was 94.56 ± 0.41 µM; with HepG2 tumor cell line, 175.2 ± 1.1 µM; in data set [1] (Homo sapiens, L02), 102.3 ± 0.85 µM. Also, the inhibition at 20 µM in the data set on T-24 tumor cell line (setting [3]) amounted to 35.9 ± 1.26%; in the data set with A549 tumor cell line, 29.4 ± 0.65%; with BEL-7404 tumor cell line (setting [4]) it was 27.2 ± 0.94%; in the data set with NCI-H460 tumor cell line (setting [5]) it was 25.4 ± 0.34%; in the data set on HepG2 tumor cell line (setting [2]), 19.5 ± 1.05%; in data set [1] (setting [6]) it was 26.9 ± 0.79%.
